{
  "source": "paper PMC5852172",
  "about": "“Characterization of antimicrobial and hemolytic properties of short synthetic cationic lipopeptides based on QSAR/QSTR approach” (Amino Acids, 2017)",
  "origin": "cited, not measured here",
  "key": {"[1]": {"tested_on": "Enterococcus faecalis (ATCC 29212)", "conditions": "minimum inhibitory concentration, CLSI procedure, E. faecalis ATCC 29212; ref [1] Greber et al. 2017", "from_the_text": "Supplement 726_2017_2530_MOESM1_ESM.docx, table 1: Table 1S. Antimicrobial activity toward Gram-positive strains and toxicity toward human red blood cells. | column: Enterococcus fecalis"}, "[2]": {"tested_on": "Bacillus subtilis (ATCC 6633)", "conditions": "minimum inhibitory concentration, CLSI procedure, B. subtilis ATCC 6633; ref [1] Greber et al. 2017", "from_the_text": "Supplement 726_2017_2530_MOESM1_ESM.docx, table 1: Table 1S. Antimicrobial activity toward Gram-positive strains and toxicity toward human red blood cells. | column: Bacillus subtillis"}, "[3]": {"tested_on": "human red blood cells", "conditions": "lowest concentration of lipopeptide inducing 10% hemolysis of human red blood cells; ref [1] Greber et al. 2017", "from_the_text": "Supplement 726_2017_2530_MOESM1_ESM.docx, table 1: Table 1S. Antimicrobial activity toward Gram-positive strains and toxicity toward human red blood cells. | column: Haemolysis"}, "[4]": {"tested_on": "Staphylococcus aureus (ATCC 25923)", "conditions": "minimum inhibitory concentration, CLSI procedure, S. aureus ATCC 25923; ref [1] Greber et al. 2017", "from_the_text": "Supplement 726_2017_2530_MOESM1_ESM.docx, table 1: Table 1S. Antimicrobial activity toward Gram-positive strains and toxicity toward human red blood cells. | column: Staphylococcus aureus"}, "[5]": {"tested_on": "S. epidermidis (PCM 2118)", "conditions": "minimum inhibitory concentration, CLSI procedure, ref [1] Greber et al. 2017", "from_the_text": "Supplement 726_2017_2530_MOESM1_ESM.docx, table 1: Table 1S. Antimicrobial activity toward Gram-positive strains and toxicity toward human red blood cells. | column: Staphylococcus epidermidis"}},
  "data": [
    {"substance": "C16-KK-NH2", "values": [
      {"measurement": "Enterococcus fecalis MIC", "setting": "[1]", "value": 8, "unit": "µg/mL"},
      {"measurement": "Bacillus subtillis MIC", "setting": "[2]", "value": 4, "unit": "µg/mL"},
      {"measurement": "Haemolysis MHC", "setting": "[3]", "value": 256, "unit": "µg/mL"},
      {"measurement": "Staphylococcus aureus MIC", "setting": "[4]", "value": 8, "unit": "µg/mL"},
      {"measurement": "Staphylococcus epidermidis MIC", "setting": "[5]", "value": 4, "unit": "µg/mL"}
    ]},
    {"substance": "C16-KKK-NH2", "values": [
      {"measurement": "Enterococcus fecalis MIC", "setting": "[1]", "value": 16, "unit": "µg/mL"},
      {"measurement": "Bacillus subtillis MIC", "setting": "[2]", "value": 8, "unit": "µg/mL"},
      {"measurement": "Haemolysis MHC", "setting": "[3]", "value": 32, "unit": "µg/mL"},
      {"measurement": "Staphylococcus aureus MIC", "setting": "[4]", "value": 8, "unit": "µg/mL"},
      {"measurement": "Staphylococcus epidermidis MIC", "setting": "[5]", "value": 4, "unit": "µg/mL"}
    ]},
    {"substance": "C16-KKKK-NH2", "values": [
      {"measurement": "Enterococcus fecalis MIC", "setting": "[1]", "value": 16, "unit": "µg/mL"},
      {"measurement": "Bacillus subtillis MIC", "setting": "[2]", "value": 4, "unit": "µg/mL"},
      {"measurement": "Haemolysis MHC", "setting": "[3]", "value": 16, "unit": "µg/mL"},
      {"measurement": "Staphylococcus aureus MIC", "setting": "[4]", "value": 4, "unit": "µg/mL"},
      {"measurement": "Staphylococcus epidermidis MIC", "setting": "[5]", "value": 4, "unit": "µg/mL"}
    ]}
  ]
}
